Assay [1] has as its target Serine/threonine-protein kinase PRP4 homolog (Homo sapiens) (UniProt Q13523). In words: Selectivity interaction (KinomeScan (DiscoverX)) EUB0000264b PRPF4B. The note with it: at 10 µM.
The target in assay [2] is T1, Gamma-aminobutyric acid receptor subunit alpha-1 (Homo sapiens, UniProt P14867).
T1 sequence (P14867 whole entry): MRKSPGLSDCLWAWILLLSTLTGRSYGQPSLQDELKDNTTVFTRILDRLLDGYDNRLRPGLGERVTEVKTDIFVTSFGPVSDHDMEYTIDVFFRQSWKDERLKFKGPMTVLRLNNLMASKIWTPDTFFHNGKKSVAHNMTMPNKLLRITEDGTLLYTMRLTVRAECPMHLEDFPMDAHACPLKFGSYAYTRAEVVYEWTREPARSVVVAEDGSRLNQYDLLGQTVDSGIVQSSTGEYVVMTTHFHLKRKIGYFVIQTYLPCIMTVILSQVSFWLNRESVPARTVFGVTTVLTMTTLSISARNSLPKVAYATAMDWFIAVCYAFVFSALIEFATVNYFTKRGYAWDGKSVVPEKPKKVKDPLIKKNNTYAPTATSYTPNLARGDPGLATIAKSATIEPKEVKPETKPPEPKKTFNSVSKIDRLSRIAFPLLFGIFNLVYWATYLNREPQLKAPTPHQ
The assay can be described thus: Selectivity interaction (GPCR panel (PDSP screen)) EUB0000264b GABRA1.

In assay [3] the target is T2, Myosin-IIIb (Homo sapiens) (UniProt Q8WXR4).
T2 sequence (whole entry): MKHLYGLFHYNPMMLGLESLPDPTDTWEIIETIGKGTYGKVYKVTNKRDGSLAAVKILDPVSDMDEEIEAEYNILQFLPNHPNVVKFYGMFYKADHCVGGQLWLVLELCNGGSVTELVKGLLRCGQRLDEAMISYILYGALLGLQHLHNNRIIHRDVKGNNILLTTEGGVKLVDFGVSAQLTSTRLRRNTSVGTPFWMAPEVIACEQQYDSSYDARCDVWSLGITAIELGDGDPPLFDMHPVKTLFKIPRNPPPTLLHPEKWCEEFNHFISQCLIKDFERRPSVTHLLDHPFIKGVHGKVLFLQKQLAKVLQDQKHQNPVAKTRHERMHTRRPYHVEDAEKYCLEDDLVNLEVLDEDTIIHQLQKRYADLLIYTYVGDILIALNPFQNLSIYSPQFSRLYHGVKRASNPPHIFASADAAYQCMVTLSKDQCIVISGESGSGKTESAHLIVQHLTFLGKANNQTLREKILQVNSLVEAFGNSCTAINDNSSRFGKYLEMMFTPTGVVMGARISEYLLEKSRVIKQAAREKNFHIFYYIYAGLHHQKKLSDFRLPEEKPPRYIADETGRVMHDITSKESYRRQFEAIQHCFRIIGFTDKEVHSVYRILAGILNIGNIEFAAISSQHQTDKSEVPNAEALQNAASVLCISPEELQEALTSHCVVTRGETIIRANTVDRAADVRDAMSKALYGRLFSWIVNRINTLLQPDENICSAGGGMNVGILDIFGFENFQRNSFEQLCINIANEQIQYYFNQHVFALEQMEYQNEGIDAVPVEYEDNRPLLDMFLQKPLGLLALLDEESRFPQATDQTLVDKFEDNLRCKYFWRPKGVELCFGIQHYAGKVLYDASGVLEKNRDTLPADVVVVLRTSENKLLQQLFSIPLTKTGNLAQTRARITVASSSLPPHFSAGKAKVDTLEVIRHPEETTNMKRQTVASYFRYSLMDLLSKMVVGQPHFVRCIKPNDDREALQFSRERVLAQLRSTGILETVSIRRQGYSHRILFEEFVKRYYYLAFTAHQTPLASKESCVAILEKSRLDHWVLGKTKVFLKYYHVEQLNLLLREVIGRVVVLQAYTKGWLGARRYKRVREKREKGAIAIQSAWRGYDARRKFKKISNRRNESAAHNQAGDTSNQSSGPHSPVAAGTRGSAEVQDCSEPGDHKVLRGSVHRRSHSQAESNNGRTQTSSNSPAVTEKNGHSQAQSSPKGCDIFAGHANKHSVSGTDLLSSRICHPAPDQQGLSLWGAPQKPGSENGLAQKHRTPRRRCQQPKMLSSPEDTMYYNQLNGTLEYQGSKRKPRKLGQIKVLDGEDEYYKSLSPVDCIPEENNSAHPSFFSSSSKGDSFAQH
In words: Selectivity interaction (KinomeScan (DiscoverX)) EUB0000264b MYO3B. The note with it: at 10 µM.

The target of assay [4] is T3, Alpha-1D adrenergic receptor (Homo sapiens, UniProt P25100).
T3 sequence (P25100 whole entry): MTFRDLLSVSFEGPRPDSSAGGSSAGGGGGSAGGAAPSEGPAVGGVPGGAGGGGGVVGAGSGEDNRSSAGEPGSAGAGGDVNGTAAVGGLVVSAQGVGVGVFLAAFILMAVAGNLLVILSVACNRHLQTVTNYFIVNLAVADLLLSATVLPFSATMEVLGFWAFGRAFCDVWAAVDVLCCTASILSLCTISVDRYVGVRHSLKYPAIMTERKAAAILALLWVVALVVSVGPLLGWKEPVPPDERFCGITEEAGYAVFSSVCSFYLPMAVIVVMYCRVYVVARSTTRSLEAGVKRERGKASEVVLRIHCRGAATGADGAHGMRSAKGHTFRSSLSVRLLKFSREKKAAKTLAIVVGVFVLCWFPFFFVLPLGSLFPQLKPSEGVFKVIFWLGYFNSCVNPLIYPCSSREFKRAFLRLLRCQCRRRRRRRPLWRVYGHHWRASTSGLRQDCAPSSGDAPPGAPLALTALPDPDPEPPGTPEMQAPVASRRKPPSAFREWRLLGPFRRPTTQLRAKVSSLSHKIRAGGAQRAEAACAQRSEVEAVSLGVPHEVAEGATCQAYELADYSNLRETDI
The assay can be described thus: Selectivity interaction (GPCR panel (PDSP screen)) EUB0000746a ADRA1D.

A further assay addresses D(3) dopamine receptor (Homo sapiens, UniProt P35462). The assay can be described thus: Selectivity interaction (GPCR panel (PDSP screen)) EUB0000746a DRD3.
Assay [5] deals with Calcium/calmodulin-dependent protein kinase type 1B (Homo sapiens, UniProt Q6P2M8). The assay can be described thus: Selectivity interaction (KinomeScan (DiscoverX)) EUB0000746a PNCK. The note with it: at 1 µM.
Sequence of Calcium/calmodulin-dependent protein kinase type 1B (Q6P2M8 whole entry): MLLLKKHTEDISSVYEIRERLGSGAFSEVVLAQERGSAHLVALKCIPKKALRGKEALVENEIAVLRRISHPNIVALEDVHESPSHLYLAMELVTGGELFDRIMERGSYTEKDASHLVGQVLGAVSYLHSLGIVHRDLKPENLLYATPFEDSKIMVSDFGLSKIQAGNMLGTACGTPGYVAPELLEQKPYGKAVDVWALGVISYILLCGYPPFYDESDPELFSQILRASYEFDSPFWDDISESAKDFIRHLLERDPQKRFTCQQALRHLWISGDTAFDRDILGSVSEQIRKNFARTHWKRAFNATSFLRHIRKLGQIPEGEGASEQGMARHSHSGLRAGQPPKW
Assay [6] has as its target T4, Mitogen-activated protein kinase 12 (Homo sapiens) (UniProt P53778).
T4 sequence (whole entry): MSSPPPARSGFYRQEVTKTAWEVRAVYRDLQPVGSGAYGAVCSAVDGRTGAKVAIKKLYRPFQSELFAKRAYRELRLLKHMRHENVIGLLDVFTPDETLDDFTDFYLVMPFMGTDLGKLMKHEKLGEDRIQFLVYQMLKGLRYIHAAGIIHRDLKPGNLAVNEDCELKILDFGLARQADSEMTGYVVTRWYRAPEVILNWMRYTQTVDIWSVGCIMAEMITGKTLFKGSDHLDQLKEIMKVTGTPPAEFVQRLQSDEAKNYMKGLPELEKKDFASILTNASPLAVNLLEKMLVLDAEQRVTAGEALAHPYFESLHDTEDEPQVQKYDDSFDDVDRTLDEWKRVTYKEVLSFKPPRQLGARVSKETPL
In words: Selectivity interaction (KinomeScan (DiscoverX)) EUB0000746a MAPK12. The note with it: at 1 µM.

For assay [7], the target named is Phosphatidylinositol 4,5-bisphosphate 3-kinase catalytic subunit alpha isoform (Homo sapiens, UniProt P42336). The assay can be described thus: Selectivity interaction (KinomeScan (DiscoverX)) EUB0000746a PIK3CA. The note with it: at 1 µM.
Sequence of Phosphatidylinositol 4,5-bisphosphate 3-kinase catalytic subunit alpha isoform (P42336 whole entry, canonical isoform): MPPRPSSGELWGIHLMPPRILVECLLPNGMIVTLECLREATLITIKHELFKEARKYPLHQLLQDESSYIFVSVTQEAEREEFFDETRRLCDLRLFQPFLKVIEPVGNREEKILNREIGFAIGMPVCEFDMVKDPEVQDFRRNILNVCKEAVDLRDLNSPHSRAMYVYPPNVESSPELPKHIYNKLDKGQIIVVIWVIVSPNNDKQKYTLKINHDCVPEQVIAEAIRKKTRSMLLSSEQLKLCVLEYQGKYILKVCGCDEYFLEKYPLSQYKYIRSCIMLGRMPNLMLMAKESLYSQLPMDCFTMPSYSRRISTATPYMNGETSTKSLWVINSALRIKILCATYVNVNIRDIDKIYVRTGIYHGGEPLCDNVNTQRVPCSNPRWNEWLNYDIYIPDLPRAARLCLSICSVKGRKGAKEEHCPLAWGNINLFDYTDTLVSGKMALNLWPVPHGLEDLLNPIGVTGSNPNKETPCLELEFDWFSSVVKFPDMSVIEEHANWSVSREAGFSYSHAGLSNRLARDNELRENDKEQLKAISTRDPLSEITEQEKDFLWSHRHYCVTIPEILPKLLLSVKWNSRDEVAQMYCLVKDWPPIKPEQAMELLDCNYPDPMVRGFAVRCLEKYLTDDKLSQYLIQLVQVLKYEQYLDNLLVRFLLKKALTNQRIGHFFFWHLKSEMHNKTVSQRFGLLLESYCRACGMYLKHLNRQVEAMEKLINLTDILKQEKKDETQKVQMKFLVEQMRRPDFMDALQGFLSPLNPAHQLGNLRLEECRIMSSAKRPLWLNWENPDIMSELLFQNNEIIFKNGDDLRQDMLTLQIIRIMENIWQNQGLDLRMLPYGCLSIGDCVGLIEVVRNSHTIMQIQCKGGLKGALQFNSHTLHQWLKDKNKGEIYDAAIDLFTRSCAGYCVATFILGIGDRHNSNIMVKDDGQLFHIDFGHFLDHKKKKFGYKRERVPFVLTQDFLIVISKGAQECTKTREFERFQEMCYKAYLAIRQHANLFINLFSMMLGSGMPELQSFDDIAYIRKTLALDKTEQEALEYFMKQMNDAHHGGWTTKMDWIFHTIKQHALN

Molecules are shown by their SMILES. pKi: −log10 of the molar value.

Sequence of D(3) dopamine receptor (P35462 whole entry): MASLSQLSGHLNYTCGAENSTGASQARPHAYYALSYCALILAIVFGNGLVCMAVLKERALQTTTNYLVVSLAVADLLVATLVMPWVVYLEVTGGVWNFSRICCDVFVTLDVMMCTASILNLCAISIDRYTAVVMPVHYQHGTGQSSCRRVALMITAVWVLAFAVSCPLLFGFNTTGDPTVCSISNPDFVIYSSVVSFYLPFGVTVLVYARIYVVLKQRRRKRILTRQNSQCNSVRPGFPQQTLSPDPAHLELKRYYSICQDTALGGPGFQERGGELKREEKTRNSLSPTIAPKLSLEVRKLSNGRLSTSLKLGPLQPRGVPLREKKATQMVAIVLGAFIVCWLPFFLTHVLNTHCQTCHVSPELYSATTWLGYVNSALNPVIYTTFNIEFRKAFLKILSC
Sequence of Serine/threonine-protein kinase PRP4 homolog (Homo sapiens) (Q13523 whole entry): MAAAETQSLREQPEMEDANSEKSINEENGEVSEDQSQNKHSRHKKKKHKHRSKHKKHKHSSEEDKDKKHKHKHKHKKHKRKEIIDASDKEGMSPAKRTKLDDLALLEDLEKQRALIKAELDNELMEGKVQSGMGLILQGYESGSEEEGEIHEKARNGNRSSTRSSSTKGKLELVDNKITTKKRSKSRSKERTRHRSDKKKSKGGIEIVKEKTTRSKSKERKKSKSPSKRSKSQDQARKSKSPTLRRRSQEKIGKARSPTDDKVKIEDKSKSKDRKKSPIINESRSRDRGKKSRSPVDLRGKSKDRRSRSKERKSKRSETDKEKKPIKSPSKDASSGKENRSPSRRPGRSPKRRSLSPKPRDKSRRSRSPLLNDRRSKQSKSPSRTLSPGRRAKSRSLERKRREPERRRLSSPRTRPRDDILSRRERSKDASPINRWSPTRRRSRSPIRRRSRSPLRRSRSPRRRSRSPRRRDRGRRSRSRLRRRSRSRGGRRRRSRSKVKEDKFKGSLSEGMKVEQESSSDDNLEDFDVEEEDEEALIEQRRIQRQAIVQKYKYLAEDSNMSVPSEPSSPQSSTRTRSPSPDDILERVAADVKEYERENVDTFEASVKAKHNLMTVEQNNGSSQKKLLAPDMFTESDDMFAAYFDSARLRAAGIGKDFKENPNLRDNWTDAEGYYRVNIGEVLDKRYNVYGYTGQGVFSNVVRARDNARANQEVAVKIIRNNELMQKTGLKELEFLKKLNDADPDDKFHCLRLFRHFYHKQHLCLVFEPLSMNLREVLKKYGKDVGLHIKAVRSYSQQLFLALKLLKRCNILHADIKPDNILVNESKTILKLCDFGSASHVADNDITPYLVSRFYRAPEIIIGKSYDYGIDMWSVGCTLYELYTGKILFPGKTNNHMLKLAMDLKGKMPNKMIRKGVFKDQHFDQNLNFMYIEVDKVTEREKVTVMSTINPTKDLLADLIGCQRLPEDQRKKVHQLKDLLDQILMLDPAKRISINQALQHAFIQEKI

Usually pKi stands for the Ki on a negative log10 scale, so that one unit is a factor of ten. A low value points to a large Ki. With `COc1ccc2c(c1)O[C@H](c1ccc(OC)c(OC)c1)C[C@@H]2NC(=O)C1(c2ccc3c(c2)OC(F)(F)O3)CC1` [A-1596584], the % of control in assay [1] was 56%; in assay [3] it was 39%. In assay [2], this compound gave a negative logarithm of the Ki (pKi) of 6.66.

For `O=C(NS(=O)(=O)c1ccc(NCC2CCOCC2)c([N+](=O)[O-])c1)c1ccc(N2CCN(Cc3ccc(C(F)(F)F)cc3-c3ccc(Cl)cc3)CC2)cc1Oc1cnc2[nH]ccc2c1` [A-1210227], the negative-log Ki (pKi) (in assay [4]; on D(3) dopamine receptor) was less than 5.00 throughout. Moreover, the % of control in assay [5] was found to be 0%; in assay [6] it was 50%; in assay [7], 50%.

For the origin of these results see ChEMBL document CHEMBL5212743, “Selectivity Literature for EUbOPEN Chemogenomics Library wave 3” (2023).
